ChEMBL document CHEMBL2203140, “Syntheses and structure-activity relationship studies of N-substituted-β-D-glucosaminides as selective cytotoxic agents” (Bioorg Med Chem Lett, 2012)

Columns and labels:
Assay type in all cases: functional, cell-based
HeLa = test: Cytotoxicity against human HeLa cells after 48 hrs by MTT assay
HCT-116 = test: Cytotoxicity against human HCT116 cells after 48 hrs by MTT assay; conditions: HCT-116, 48 h
MCF7 = test: Cytotoxicity against human MCF7 cells after 48 hrs by MTT assay; conditions: MCF7, 48 h
HepG2 = test: Cytotoxicity against human HepG2 cells after 48 hrs by MTT assay; conditions: HepG2, 48 h
HT-1080 = test: Cytotoxicity against human HT1080 cells after 48 hrs by MTT assay; conditions: HT-1080, 48 h
A549 = test: Cytotoxicity against human A549 cells after 48 hrs by MTT assay; conditions: A549, 48 h

| SMILES | IC50 (HeLa) [µM] | IC50 (HCT-116) [µM] | IC50 (MCF7) [µM] | IC50 (HepG2) [µM] | IC50 (HT-1080) [µM] | IC50 (A549) [µM] |
| --- | --- | --- | --- | --- | --- | --- |
| C[C@@H]1CC[C@@]2(OC1)O[C@H]1C[C@H]3[C@@H]4CC=C5C[C@@H](O[C@@H]6O[C@H](CO)[C@@H](O)[C@H](O)[C@H]6NC(=O)/C=C/c6ccccc6)CC[C@]5(C)[C@H]4CC[C@]3(C)[C@H]1[C@@H]2C | 12.8 | 39.1 | 16 | 36.3 | 29.8 | 41.8 |
| C[C@@H]1CC[C@@]2(OC1)O[C@H]1C[C@H]3[C@@H]4CC=C5C[C@@H](O[C@@H]6O[C@H](CO)[C@@H](O)[C@H](O)[C@H]6NC(=O)/C=C/c6ccc(F)cc6)CC[C@]5(C)[C@H]4CC[C@]3(C)[C@H]1[C@@H]2C | 26.9 | 35 | 21.2 | 39.8 | 34.9 | 33.8 |
